Source: patent publication US20240299486A1, “ADDRESSING INJECTION SITE REACTIONS ASSOCIATED WITH THE ADMINISTRATION OF ELAMIPRETIDE” (STEALTH BIOTHERAPEUTICS INC., priority 2022, published 2024)

How the values were obtained:
healthy subjects = assay: Phase 1 crossover study: self-assessed injection site reactions; assay type: in vivo, human; conditions: 60 mg SQ elamipretide with or without the intervention, across all timepoints, all participants, n = 80
Procedure: • This Phase 1, open-label, 6-arm crossover study included 10 healthy subjects ≥18 and ≤65 years of age. • All subjects received 60 mg of SQ elamipretide to alternating quadrants of the abdomen on each of 6 occasions (FIG. 3), with or without the interventions listed in Table 2. • For each treatment arm, ISR clinical and self-assessments were performed pre-elamipretide administration and at 0.5, 1, 2, 4, 6, 12, 24, and 48 hours after each elamipretide dose. • Blood samples for plasma concentrations of elamipretide and its metabolites were also collected pre-dose and at 0.25, 0.5, 1, 2, 4, and 6 hours post-elamipretide dose. • Primary endpoints consisted of comparisons of the grading from the clinical assessments and the self-assessments of each ISR parameter following administration of elamipretide with each separate intervention versus that of elamipretide alone. • Secondary endpoints consisted of comparison of various pharmacokinetic (PK) parameters and adverse events following administration of elamipretide with each separate intervention versus that of elamipretide alone.
After the screening period (up to 28 days) in this phase 1, open-label, 4-week, 6-part, crossover study, all eligible subjects received 60 mg (0.75 mL) of SC elamipretide to alternating quadrants of the abdomen on each of 6 occasions, with or without potential ISR interventions. The first treatment arm (Arm 1) commenced on Day 1 with administration of elamipretide only, followed by the remaining treatment arms (Arms 2-6) with the following potential mitigations: mometasone furoate, 0.1% ointment, applied once under a hydrocolloid occlusive dressing (DuoDERM Extra Thin) 7 days prior to elamipretide administration (Arm 2); ice application at the elamipretide injection site 5 minutes pre- and post-drug administration (Arm 3); tacrolimus 0.1% ointment applied 15 minutes pre-drug dosing (Arm 4); doxepin 5% cream applied 15 minutes pre-elamipretide administration (Arm 5); and diphenhydramine 50 mg orally taken 2 hours prior to administration (Arm 6). For each treatment arm, blood samples for plasma concentrations of elamipretide and its metabolites were collected pre-dose and at 0.25, 0.5, 1, 2, 4, and 6 hours post-elamipretide dose. Vital signs were recorded pre-dose and at 0.5 and 6 hours post-elamipretide administration. ISR clinical and self-assessments were performed pre-elamipretide administration and at 0.5, 1, 2, 4, 6, 12, 24, and 48 hours after each elamipretide dose. Injection sites were photographed at 0.5, 1, 2, 4, and 12 hours post-elamipretide dose.
The primary endpoints of this study were comprised of the following efficacy measures: clinical assessments and subject self-assessments. Specifically, the primary endpoints consisted of comparisons of the grading of each ISR parameter following administration of elamipretide with each separate intervention versus the grading of each ISR parameter following administration of elamipretide alone. For clinical assessments, the clinical staff used a standard procedure adapted from the Division of Aids Table for Grading the Severity of Adult and Pediatric Adverse Events to score pain, erythema, induration, and pruritus using a 4-point scale based on severity (0=None, 1=Mild, 2=Moderate, 3=Severe, 4=Potentially Life Threatening). The self-assessments were based on a questionnaire to determine how bothered the patient was following each injection of elamipretide and included the following parameters: pain, burning sensation, cold sensation, itching, redness, swelling, and bruising.
All statistical analyses were performed using SAS GRID Linux/SAS Studio (Version 9.4, or higher). PK parameters for elamipretide and its metabolites, M1 and M2, were summarized using descriptive statistics.

mouse ortholog Mrgprb2 = mouse ortholog Mrgprb2 (Mus musculus, UniProt Q3KNA1); conditions: HEK293 cells transfected with mouse ortholog Mrgprb2
Procedure: A clonal HEK293 cell line stably expressing human MRGPRX2 and Galpha15 was used for the assay, which was performed using a fluorescent plate reader. Cells were plated at 40,000 cells per well in a glass-bottom 96 well plate 20 hours before the assay. Cells were loaded with N-[4-[6-[(Acetyloxy)methoxy]-2,7-difluoro-3-oxo-3H-xanthen-9-yl]-2-[2-[2-[bis[2-[(acetyloxy)methoxy]-2-oxoethyl]amino]-5-methylphenoxy]ethoxy]phenyl]-N-[2-[(acetyloxy)methoxy]-2-oxoethyl]glycine (acetyloxy)methyl ester (Fluo-4 AM) for 45 minutes at 37° C. and allowed to rest for 30 minutes before use. Baseline fluorescence was calculated as the average of a 30 second read, with data points taken at 5 second intervals. Response was defined as the maximum signal within 90 seconds after addition of elamipretide, subtracted by the baseline fluorescence signal. Concentrations were tested in duplicate and the assay was run 6 times. The curve was calculated as a four-parameter non-linear fit with variable slope. Traces were obtained using the same cell line and same Fluo-4 AM loading protocol but were imaged using a fluorescence microscope using a standard fluorescein isothiocyanate (FITC) filter. Fluorescence for different cells was calculated using region of interest selections.
A calcium-based readout of receptor activity was used to determine whether elamipretide activates human MRGPRX2 and its mouse ortholog Mrgprb2. […]

untransfected cells = assay: Fluo-4 calcium assay in untransfected HEK293 cells; assay type: cell-based, human; conditions: untransfected cells (data not shown)

Sequence of mouse ortholog Mrgprb2 (Q3KNA1 whole entry): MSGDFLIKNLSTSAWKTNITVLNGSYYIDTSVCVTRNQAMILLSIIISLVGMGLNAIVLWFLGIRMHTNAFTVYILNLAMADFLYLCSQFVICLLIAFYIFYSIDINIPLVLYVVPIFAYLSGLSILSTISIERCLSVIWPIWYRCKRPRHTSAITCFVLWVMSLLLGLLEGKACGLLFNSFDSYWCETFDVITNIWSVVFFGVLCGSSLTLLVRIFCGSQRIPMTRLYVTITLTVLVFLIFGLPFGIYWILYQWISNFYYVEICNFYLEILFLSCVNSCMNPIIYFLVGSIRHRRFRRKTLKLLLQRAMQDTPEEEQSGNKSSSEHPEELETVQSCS

Question: For Cc1cc(O)cc(C)c1C[C@H](NC(=O)[C@H](N)CCCNC(=N)N)C(=O)N[C@@H](CCCCN)C(=O)N[C@@H](Cc1ccccc1)C(N)=O (stereo in doubt) [Elamipretide, H-D-Arg-2′,6′Dmt-Lys-Phe-NH2], which “Self-assessed Bruising, (%) of Reported Reactions” value (healthy subjects) is on record?
Answer: (6.3) %

Question: What about the “Self-assessed Bruising, Number of Reported Reactions” value (healthy subjects) of the same compound?
Answer: 5

Question: What about the “Self-assessed Burning sensation, (%) of Reported Reactions” value (healthy subjects) of the same compound?
Answer: (16.3) %

Question: What about the “Self-assessed Burning sensation, Number of Reported Reactions” value (healthy subjects) of the same compound?
Answer: 13

Question: And the “Self-assessed Cold Sensation, Number of Reported Reactions” value (healthy subjects)?
Answer: 0.0

Question: What about the “Self-assessed Itching, (%) of Reported Reactions” value (healthy subjects) of the same compound?
Answer: (20.0) %

Question: What about the “Self-assessed Itching, Number of Reported Reactions” value (healthy subjects) of the same compound?
Answer: 16

Question: What about the “Self-assessed Pain, (%) of Reported Reactions” value (healthy subjects) of the same compound?
Answer: (13.8) %

Question: And the “Self-assessed Pain, Number of Reported Reactions” value (healthy subjects)?
Answer: 11

Question: What about the “Self-assessed Redness, (%) of Reported Reactions” value (healthy subjects) of the same compound?
Answer: (30.0) %

Question: What about the “Self-assessed Redness, Number of Reported Reactions” value (healthy subjects) of the same compound?
Answer: 24

Question: And the “Self-assessed Swelling, (%) of Reported Reactions” value (healthy subjects)?
Answer: (22.5) %

Question: What about the “Self-assessed Swelling, Number of Reported Reactions” value (healthy subjects) of the same compound?
Answer: 18

Question: And the “Fluo-4 fluorescence after elamipretide exposure” value (mouse ortholog Mrgprb2)?
Answer: increased

Question: What about the “Fluo-4 fluorescence after elamipretide exposure” value (untransfected cells) of the same compound?
Answer: not in untransfected cells
